Measurements from patent US7612049B2, “Method of inhibition the growth of algae” (priority 2007, dated 2009).

Experiments:
Assay type in all cases: cell-based
Microcystis flos-aquae = experiment: Growth inhibition of Cyanobacteria, chlorophyll-a content
Description: (§1) The solution of the control and sample I were centrifuged at 10000 rpm at 20° C. for 3 hours, and then the supernatant were poured out. Next, two 10 ml portions of 95% (v/v) ethanol were added to sample I and the control and mixed with the residues. Next, the solution of sample I and the control were water-bathed in 60° C. water for 30 mins to extract Chlorophyll-a. When being bathed in the water, the solution of the control and sample I were shaken every ten minutes. After that, the solutions were centrifuged at 5000 G at 20° C. for 15 minutes and the supernatants were kept. Then, the absorbance at 665 nm of the control and sample I were detected. Finally, according to the “Standard Methods for the Examination Chlorophyll-a in Water-Ethanol Extraction” issued by National Indian Education Association, Taiwan (NIEA E508.00B), the absorbance at 665 nm of the control and sample I were calibrated and the concentration of Chlorophyll-a content can be calculated by the absorbance measure.
(§2) To verify whether Cyanobacteria can be inhibited by glucosamine or not, in the following embodiment, two kinds of toxic Cyanobacteria, Microcystis aeruginosa and […]. The detailed procedures are described below.
(§3) First, four 50 ml portions of water with Microcystis aeruginosa were obtained and labeled as control and sample II, sample III, and sample IV respectively. The weight concentration of Microcystis aeruginosa cell in these four samples 883 μg/L (ppb). Next, different amount of glucosamine was added into the three samples so that the concentrations of glucosamine in samples II, III, and IV were 10 ppm, 20 ppm, and 50 ppm, respectively. After that, the control and sample II, III, and IV were cultured for 14 days with Bold's medium, and the Chlorophyll-a content of each sample were detected every 7 days. The procedures of detecting Chlorophyll-a content was the same as mentioned in embodiment I and the whole process was repeated for testing Microcystis flos-aquae.

Microcystis aeruginosa = experiment: as above
Description: as §1, §2, §3

[1] = system: fishpond water algae, especially abundant in Chlorophyta; experiment: Growth inhibition of algae in fishpond water, chlorophyll-a content by spectrometry; settings: 100 ppm glucosamine
Description: In order to test if glucosamine inhibited the growth of algae or not, in the following embodiment, glucosamine was added to samples and then observed. Moreover, since chlorophyll-a content of algae is widely used as an indicator of the quality of freshwater bodies and the abundance of algae, the chlorophyll-a content in the sample was detected by spectrometry.
First, two 20 ml portions of water were obtained from a fishpond which contains a varieties of algae and is especially abundant in Chlorophyta. Both portions of water were labeled as control and sample I respectively. Next, 100 ppm glucosamine was added in sample I, and then the control and sample I were cultured for 28 days with Bold's medium.
The solution of the control and sample I were centrifuged at 10000 rpm at 20° C. for 3 hours, and then the supernatant were poured out. Next, two 10 ml portions of 95% (v/v) ethanol were added to sample I and the control and mixed with the residues. […] Then, the absorbance at 665 nm of the control and sample I were detected. Finally, according to the “Standard Methods for the Examination Chlorophyll-a in Water-Ethanol Extraction” issued by National Indian Education Association, Taiwan (NIEA E508.00B), the absorbance at 665 nm of the control and sample I were calibrated and the concentration of Chlorophyll-a content can be calculated by the absorbance measure.

[2] = Microcystis aeruginosa, 336 h, read-out: Inhibition efficiency (after 14 days)

## N[C@H]1C(O)O[C@H](CO)[C@@H](O)[C@@H]1O (stereo partly drawn) [glucosamine]
Microcystis flos-aquae; 10 ppm glucosamine (Sample V), 7th day, control 178 ppb
  Chlorophyll-a content: 0 ppb
Microcystis flos-aquae; 10 ppm glucosamine (Sample V), 14th day, control 438 ppb
  Chlorophyll-a content: 225 ppb
Microcystis flos-aquae; 20 ppm glucosamine (Sample VI), 7th day, control 178 ppb
  Chlorophyll-a content: 3 ppb
Microcystis flos-aquae; 20 ppm glucosamine (Sample VI), 14th day, control 438 ppb
  Chlorophyll-a content: 142 ppb
Microcystis flos-aquae; 50 ppm glucosamine (Sample VII), 7th day, control 178 ppb
  Chlorophyll-a content: 15 ppb
Microcystis flos-aquae; 50 ppm glucosamine (Sample VII), 14th day, control 438 ppb
  Chlorophyll-a content: 92 ppb
Microcystis flos-aquae; Microcystis flos-aquae, 336 h, 10 ppm glucosamine (Sample V), read-out: Inhibition efficiency (after 14 days)
  inhibition at 10 ppm: 48.6%
Microcystis flos-aquae; Microcystis flos-aquae, 336 h, 20 ppm glucosamine (Sample VI), read-out: Inhibition efficiency (after 14 days)
  inhibition at 20 ppm: 67.5%
Microcystis flos-aquae; Microcystis flos-aquae, 336 h, 50 ppm glucosamine (Sample VII), read-out: Inhibition efficiency (after 14 days)
  inhibition at 50 ppm: 78.9%
Microcystis aeruginosa; 10 ppm divided by 0.883 mg (weight concentration of Cyanobacteria 0.883 mg/L)
  minimum effective amount of glucosamine: at least 10 ppm/mg algae
Microcystis aeruginosa; 10 ppm glucosamine (Sample II), 7th day, control 270 ppb
  Chlorophyll-a content: 80 ppb
Microcystis aeruginosa; 10 ppm glucosamine (Sample II), 14th day, control 2657 ppb
  Chlorophyll-a content: 1922 ppb
Microcystis aeruginosa; 20 ppm glucosamine (Sample III), 7th day, control 270 ppb
  Chlorophyll-a content: 65 ppb
Microcystis aeruginosa; 20 ppm glucosamine (Sample III), 14th day, control 2657 ppb
  Chlorophyll-a content: 1004 ppb
Microcystis aeruginosa; 50 ppm glucosamine (Sample IV), 7th day, control 270 ppb
  Chlorophyll-a content: 41 ppb
Microcystis aeruginosa; 50 ppm glucosamine (Sample IV), 14th day, control 2657 ppb
  Chlorophyll-a content: 72.3 ppb
Microcystis aeruginosa; [2]
  inhibition at 10 ppm: 27.6%
  inhibition at 20 ppm: 62.2%
  inhibition at 50 ppm: 97.2%
[1]; 28 days, Bold's medium
  algae bloom observed after culture: the algae in the control bloomed, but not sample I
[1]; cultured 28 days with Bold's medium, control 652 ppb
  concentration of Chlorophyll-a content: 74 ppb
